Laboratory results: US10858352B2, “Pharmaceutical compounds” (Heptares Therapeutics Limited, priority 2018, dated 2020)
Read-outs that look alike come from different tables or passages of the source.

Legend:
Type in all cases: cell-based
[1] = molecular target: T1, human muscarinic M2 receptor (Homo sapiens, UniProt P08172); assay: Alphascreen Surefire phospho-ERK1/2 functional assay, M2; conditions: for Emax: CHO
T1 sequence (P08172 1-466): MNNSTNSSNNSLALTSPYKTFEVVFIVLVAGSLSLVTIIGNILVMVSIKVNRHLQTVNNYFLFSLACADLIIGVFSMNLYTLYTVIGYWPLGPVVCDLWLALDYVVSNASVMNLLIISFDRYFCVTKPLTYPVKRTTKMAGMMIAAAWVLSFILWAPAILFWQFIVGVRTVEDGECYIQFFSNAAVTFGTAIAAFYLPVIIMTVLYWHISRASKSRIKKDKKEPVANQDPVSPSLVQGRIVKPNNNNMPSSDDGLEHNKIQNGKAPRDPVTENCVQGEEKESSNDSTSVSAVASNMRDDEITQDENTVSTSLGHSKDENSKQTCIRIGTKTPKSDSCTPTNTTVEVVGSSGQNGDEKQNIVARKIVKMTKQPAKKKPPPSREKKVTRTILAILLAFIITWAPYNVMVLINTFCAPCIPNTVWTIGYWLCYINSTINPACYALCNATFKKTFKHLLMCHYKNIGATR
Procedure: (§1) ERK1/2 phosphorylation is a downstream consequence of both Gq/11 and Gi/o protein coupled receptor activation, making it highly suitable for the assessment of M1, M3 (Gq/11 coupled) and M2, M4 receptors (Gi/o coupled), rather than using different assay formats for different receptor subtypes. CHO cells stably expressing the human muscarinic M1, M2, M3 or M4 receptor were plated (25K/well) onto 96-well tissue culture plates in MEM-alpha+10% dialysed FBS. Once adhered, cells were serum-starved overnight. Agonist stimulation was performed by the addition of 5 μL agonist to the cells for 5 min (37° C.). Media was removed and 50 μL of lysis buffer added. After 15 min, a 4 μL sample was transferred to 384-well plate and 7 μL of detection mixture added. […]

[2] = molecular target: T2, human muscarinic M1 receptor (Homo sapiens, UniProt P11229); assay: Alphascreen Surefire phospho-ERK1/2 functional assay, M1; conditions: for % Emax cf. ACh (M1) / Emax: Emax relative to ACh; for pEC50 M1 / EC50: agonist 5 min, 37° C.; for Emax: CHO, read-out: % Emax cf. ACh (M1), CHO cells stably expressing human M1
T2 sequence (P11229 1-460): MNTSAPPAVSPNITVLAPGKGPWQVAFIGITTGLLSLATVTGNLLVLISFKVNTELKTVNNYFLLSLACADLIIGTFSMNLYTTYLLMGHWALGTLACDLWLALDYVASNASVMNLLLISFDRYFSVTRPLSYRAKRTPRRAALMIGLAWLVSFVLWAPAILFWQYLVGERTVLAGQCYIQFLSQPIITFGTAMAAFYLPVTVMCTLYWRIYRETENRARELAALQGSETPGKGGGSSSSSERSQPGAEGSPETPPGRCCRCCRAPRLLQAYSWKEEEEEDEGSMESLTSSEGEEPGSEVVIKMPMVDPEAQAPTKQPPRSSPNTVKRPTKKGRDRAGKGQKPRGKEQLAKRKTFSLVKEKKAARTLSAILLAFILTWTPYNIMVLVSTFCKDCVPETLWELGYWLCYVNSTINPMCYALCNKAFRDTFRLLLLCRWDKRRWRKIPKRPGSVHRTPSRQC
Procedure: as §1

[3] = molecular target: T3, human muscarinic M4 receptor (Homo sapiens, UniProt P08173); assay: Alphascreen Surefire phospho-ERK1/2 functional assay, M4; conditions: for % Emax cf. ACh (M4) / pEC50 M4 / EC50: CHO cells stably expressing human M4; for % Emax cf. ACh (M4) / Emax: Emax relative to ACh; for pEC50 M4 / EC50: agonist 5 min, 37° C.; for EC50: read-out: pEC50 M4 (converted); for Emax: CHO, read-out: % Emax cf. ACh (M4), CHO cells stably expressing human M4
T3 construct: expressed in transfected cells
T3 sequence (P08173 1-479): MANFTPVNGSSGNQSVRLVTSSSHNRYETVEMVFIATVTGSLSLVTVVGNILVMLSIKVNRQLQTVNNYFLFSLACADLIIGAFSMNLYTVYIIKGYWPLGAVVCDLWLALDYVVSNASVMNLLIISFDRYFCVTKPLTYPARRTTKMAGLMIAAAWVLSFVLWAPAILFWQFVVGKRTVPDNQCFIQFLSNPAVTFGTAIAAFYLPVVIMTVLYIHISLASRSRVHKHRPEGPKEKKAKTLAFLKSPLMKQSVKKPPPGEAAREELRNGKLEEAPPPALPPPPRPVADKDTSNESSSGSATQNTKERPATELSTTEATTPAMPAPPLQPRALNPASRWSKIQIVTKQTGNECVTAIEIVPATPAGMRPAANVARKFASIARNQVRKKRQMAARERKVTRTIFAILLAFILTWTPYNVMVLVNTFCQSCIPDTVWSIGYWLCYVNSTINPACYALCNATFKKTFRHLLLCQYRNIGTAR
Procedure: as §1

[4] = molecular target: T4, human muscarinic M3 receptor (Homo sapiens, UniProt P20309); assay: Alphascreen Surefire phospho-ERK1/2 functional assay, M3; conditions: for Emax: CHO
T4 construct: expressed in transfected cells
Procedure: as §1

[5] = CHO cells stably expressing human M2, Emax relative to ACh
[6] = CHO cells stably expressing human M2, agonist 5 min, 37° C.
[7] = CHO cells stably expressing human M1
[8] = CHO cells stably expressing human M3, Emax relative to ACh
[9] = CHO cells stably expressing human M3, agonist 5 min, 37° C.
[10] = CHO cells stably expressing human M2, agonist 5 min, 37° C., read-out: pEC50 M2 (converted)
[11] = CHO cells stably expressing human M1, read-out: pEC50 M1 (converted)
[12] = CHO cells stably expressing human M3, agonist 5 min, 37° C., read-out: pEC50 M3 (converted)
[13] = read-out: % Emax cf. ACh (M2), CHO cells stably expressing human M2, Emax relative to ACh
[14] = read-out: % Emax cf. ACh (M3), CHO cells stably expressing human M3, Emax relative to ACh

T4 sequence (P20309 whole entry): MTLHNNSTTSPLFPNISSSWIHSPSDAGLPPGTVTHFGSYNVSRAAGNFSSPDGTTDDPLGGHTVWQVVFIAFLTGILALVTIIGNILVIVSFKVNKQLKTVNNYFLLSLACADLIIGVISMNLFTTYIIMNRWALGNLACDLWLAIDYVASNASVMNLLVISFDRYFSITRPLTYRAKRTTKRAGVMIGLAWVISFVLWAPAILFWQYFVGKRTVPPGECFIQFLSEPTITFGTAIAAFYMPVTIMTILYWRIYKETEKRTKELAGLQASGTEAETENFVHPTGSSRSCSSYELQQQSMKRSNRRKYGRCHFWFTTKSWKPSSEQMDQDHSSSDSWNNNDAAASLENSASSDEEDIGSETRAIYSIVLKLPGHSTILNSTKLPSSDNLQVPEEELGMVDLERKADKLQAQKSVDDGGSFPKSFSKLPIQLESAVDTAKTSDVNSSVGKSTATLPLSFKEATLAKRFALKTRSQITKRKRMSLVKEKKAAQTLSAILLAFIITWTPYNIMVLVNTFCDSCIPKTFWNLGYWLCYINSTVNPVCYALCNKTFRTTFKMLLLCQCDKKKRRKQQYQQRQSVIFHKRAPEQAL

| % Emax cf. ACh (M2) [1, 5] | pEC50 M2 [1, 6] | % Emax cf. ACh (M1) [2, 7] | pEC50 M1 [2, 7] | % Emax cf. ACh (M4) [3] | pEC50 M4 [3] | % Emax cf. ACh (M3) [4, 8] | pEC50 M3 [4, 9] | Compound | Emax ([1]; read-out: % Emax cf. ACh (M2)) [%] | Emax [2] [%] | EC50 [3] [µM] | Emax [3] [%] | Emax ([4]; read-out: % Emax cf. ACh (M3)) [%] | EC50 [1, 10] [µM] | EC50 [2, 11] [µM] | EC50 [4, 12] [µM] | further results |
| --- | --- | --- | --- | --- | --- | --- | --- | --- | --- | --- | --- | --- | --- | --- | --- | --- | --- |
| (13) % | <4.70 | (132) % | 7.59 | (30) % | 6.92 | (25) % | <4.70 | CCN(CC)C(=O)[C@H]1[C@@H]2CN(C3CC4COCC(C3)N4c3nc(C(F)(F)F)no3)C[C@@H]21 (single isomer, unassigned; isomer 2) [12-23 Isomer 2] |  |  |  |  |  |  |  |  |  |
|  |  |  |  |  |  |  |  | CCc1noc(N2C3CCC2CC(N2CCC4(CC2)CNC(=O)C4)C3)n1 (single isomer, unassigned) [6-3 Isomer 2] | 3 | 33 | > 20 | 7 | 1 |  |  |  | EC50 [1]: > 20 µM; EC50 ([2]; pEC50 M1, CHO cells stably expressing human M1): 0.0324 µM; EC50 [4]: > 20 µM |
|  |  |  |  |  |  |  |  | Cc1noc(N2C3CCC2CC(N2CCC(n4cccn4)CC2)C3)n1 (single isomer, unassigned) [6-1 Isomer 1] | 2 | 23 | 0.295 | 51 | 2 | > 20 | > 20 | > 20 |  |
|  |  |  |  |  |  |  |  | Cc1noc(N2C3CCCC2CC(N2CCC4(CC2)CNC(=O)O4)C3)n1 (single isomer, unassigned) [8-3 Isomer 1] | 4 | 39 | > 20 | 67 | 1 | > 20 | 0.295 | > 20 |  |
| (60) % | 5.33 | (102) % | 7.58 | (83) % | 6.02 | (25) % | <4.70 | CCN(C)C(=O)[C@H]1[C@@H]2CN(C3CC4CCC(C3)N4c3nc(C)no3)C[C@@H]21 (single isomer, unassigned; isomer 2) [12-24 Isomer 2] |  |  |  |  |  |  |  |  |  |
|  |  |  |  |  |  |  |  | Cc1noc(N2CC3CC(N4CCC5(CC4)CNC(=O)C5)CC2C3)n1 (single isomer, unassigned) [11-2 Isomer 2] |  | 67 | > 20 | 15 |  | > 20 | 0.00955 | > 20 | Emax [1, 13]: 8%; Emax [4, 14]: 5% |
|  |  |  |  |  |  |  |  | CCC1(NC(=O)C2CCN(C3CC4CCC(C3)N4c3nc(C)no3)CC2)CCC1 (single isomer, unassigned) [12-8 Isomer 2] | 33 | 104 | 0.933 | 109 | 3 | 2.45 | 0.135 | > 20 |  |
|  |  |  |  |  |  |  |  | CCN(CC)C(=O)[C@H]1[C@@H]2CN(C3CC4COCC(C3)N4c3nc(C)no3)C[C@@H]21 (single isomer, unassigned) [9-2 Isomer 2] | 27 | 109 | 0.741 | 74 | 42 | > 20 | 0.219 | 6.31 |  |
|  |  |  |  |  |  |  |  | Cc1noc(N2C3CCC2CC(N2CCC(C(=O)NC4(C)CCC4)CC2)C3)n1 (single isomer, unassigned) [6-5 Isomer 2] | 31 | 100 | 0.195 | 79 | 11 | > 20 | 0.148 | > 20 |  |
|  |  |  |  |  |  |  |  | Cc1noc(N2CCCC(N3CCC4(CC3)CNC(=O)C4)CC2)n1 (single isomer, unassigned) [10-2 Isomer 1] |  | 66 | > 20 | 10 |  | > 20 | 0.0933 | > 20 | Emax [1, 13]: 3%; Emax [4, 14]: 5% |
|  |  |  |  |  |  |  |  | Cc1noc(N2C3COCC2CC(N2CCC(n4cccn4)CC2)C3)n1 (single isomer, unassigned) [9-1 Isomer 1] | 21 | 15 | 0.105 | 77 | 1 | > 20 | > 20 | > 20 |  |
|  |  |  |  |  |  |  |  | Cc1noc(N2CCC3(CC(N4CCC(n5cccn5)CC4)C3)C2)n1 (single isomer, unassigned) [2-1 Isomer 2] |  | 56 | 0.302 | 41 |  | > 20 | > 20 | > 20 | Emax [1, 13]: 2%; Emax [4, 14]: 3% |
|  |  | (44) % |  |  |  |  |  | Cc1noc(N2CCCC(N3CCC(N4C[C@H](F)C[C@@H]4CO)CC3)CC2)n1 (single isomer, unassigned) [10-7 Isomer 1] |  |  | 0.105 | 89 |  | > 20 | 3.72 | > 20 | Emax [1, 13]: 15%; Emax [4, 14]: 2% |
| (27) % | 5.23 | (87) % | 7.00 | (62) % | 6.68 | (15) % | <4.70 | CC(=O)N(CC1(C)CCC1)C1CCN(C2CC3CCC(C2)N3c2nc(C)no2)CC1 (single isomer, unassigned; isomer 1) [12-18 Isomer 1] |  |  |  |  |  |  |  |  |  |
| (81) % | 5.68 | (102) % | 8.06 | (108) % | 6.23 | (52) % | 4.90 | Cc1noc(N2C3COCC2CC(N2C[C@@H]4[C@H](C2)[C@H]4C(=O)N(C)C(C)C)C3)n1 (single isomer, unassigned; isomer 2) [12-22 Isomer 2] |  |  |  |  |  |  |  |  |  |
| (31) % | <4.70 | (102) % | 6.70 | (22) % | <4.70 | (50) % | <4.70 | CCN(CC)C(=O)[C@H]1[C@@H]2CN(C3CC4CCC(C3)N4c3nc(C)no3)C[C@@H]21 (single isomer, unassigned; isomer 1) [12-25 Isomer 1] |  |  |  |  |  |  |  |  |  |

| Compound | % Emax cf. ACh (M2) [1, 5] | pEC50 M2 [1, 6] | % Emax cf. ACh (M1) [2, 7] | pEC50 M1 [2, 7] | % Emax cf. ACh (M4) [3] | pEC50 M4 [3] | % Emax cf. ACh (M3) [4, 8] | pEC50 M3 [4, 9] | Emax ([1]; read-out: % Emax cf. ACh (M2)) [%] | Emax [2] [%] | EC50 [3] [µM] | Emax [3] [%] | Emax ([4]; read-out: % Emax cf. ACh (M3)) [%] | EC50 [1, 10] [µM] | EC50 [2, 11] [µM] | EC50 [4, 12] [µM] | further results |
| --- | --- | --- | --- | --- | --- | --- | --- | --- | --- | --- | --- | --- | --- | --- | --- | --- | --- |
| O=C1CC2(CCN(C3CC4CCC(C3)N4c3nc(C(F)(F)F)no3)CC2)CN1 (single isomer, unassigned; isomer 2) [12-3 Isomer 2] | (14) % | <4.70 | (103) % | 8.30 | (23) % | 6.70 | (70) % | <4.70 |  |  |  |  |  |  |  |  |  |
